Target: T1, TIGIT/CD155 complex (Homo sapiens, UniProt Q495A1)
T1 construct: purchased 63ADK000CB07PEG
T1 sequence (Q495A1 22-141 limits assumed): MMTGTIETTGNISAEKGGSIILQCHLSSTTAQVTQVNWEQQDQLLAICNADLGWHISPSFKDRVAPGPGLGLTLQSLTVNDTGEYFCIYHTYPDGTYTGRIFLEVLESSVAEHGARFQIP
Experiment: HTRF TIGIT/CD155 binding assay (blocking of TIGIT/CD155 complex)
Conditions: for IC50: read-out: IC50, protein-protein blocking activity for TIGIT/CD155 complex; for TIGIT binding effects compared with compound 1: derivatives with side chains R1, R2, R3 modified
Method: Thus, the most enriched library molecule was found in the TIGIT screening and marked as potential ligand 1 (highlighted red in Figure 2A), whereas it was not observed in the bead-only control (Supplementary Figure S1B). The hit compound 1 was re-synthesized by “off-DNA” (the structure is shown in Figure 2B), and corresponding binding affinity was tested utilizing homogeneous time-resolved fluorescence (HTRF) technology.
For all compounds, the binding affinities were measured with TIGIT/CD155 Binding Assay (Immuno-Oncology, Part # 63ADK000CB07PEG) following the standard kit protocol.

| IC50 [µM] | TIGIT binding effects compared with compound 1 | binding affinity rank among derivatives | Compound |
| --- | --- | --- | --- |
| 20.7 |  |  | COc1ccc(C(NC(=O)C(Cc2ccsc2)NC(=O)C(C)c2ccc3cc(OC)ccc3c2)c2ccc(OCC(=O)O)cc2)c(OC)c1 (stereo not shown) [Compound 1] |
|  | improved |  | COc1ccc(C(NC(=O)[C@H](Cc2ccsc2)NC(=O)c2ccc3cc(OC)ccc3c2)c2ccc(OCC(=O)O)cc2)c(OC)c1 (stereo partly shown) [Compound a6] |
| 3.9 | improved | highest binding affinity | COc1ccc(C(NC(=O)[C@H](Cc2ccsc2)NC(=O)/C=C/c2ccc3cc(OC)ccc3c2)c2ccc(OCC(=O)O)cc2)c(OC)c1 (stereo partly shown) [Compound a7] |
|  | improved |  | COc1ccc(C(NC(=O)[C@H](Cc2csc3ccccc23)NC(=O)[C@@H](C)c2ccc3cc(OC)ccc3c2)c2ccc(OCC(=O)O)cc2)c(OC)c1 (stereo partly shown) [Compound a16] |
|  | improved |  | COc1ccc(C(NC(=O)[C@H](Cc2ccccc2)NC(=O)[C@@H](C)c2ccc3cc(OC)ccc3c2)c2ccc(OCC(=O)O)cc2)c(OC)c1 (stereo partly shown) [Compound a17] |
|  | improved |  | COc1ccc(C(NC(=O)[C@H](Cc2ccc(F)cc2)NC(=O)[C@@H](C)c2ccc3cc(OC)ccc3c2)c2ccc(OCC(=O)O)cc2)c(OC)c1 (stereo partly shown) [Compound a18] |
|  | improved |  | COc1ccc(C(NC(=O)[C@H](Cc2cccc(C#N)c2)NC(=O)[C@@H](C)c2ccc3cc(OC)ccc3c2)c2ccc(OCC(=O)O)cc2)c(OC)c1 (stereo partly shown) [Compound a19] |
|  | improved |  | COc1ccc2cc([C@H](C)C(=O)N[C@@H](Cc3csc4ccccc34)C(=O)NCc3ccc(OCC(=O)O)cc3)ccc2c1 [Compound a27] |

From publication PMC9360614, “Discovery of TIGIT inhibitors based on DEL and machine learning” (Frontiers in Chemistry, 2022)
